Measurements as given in patent US20100323989A1, “PHARMACEUTICAL COMBINATIONS USEFUL FOR TREATING HCV” (Gilead Sciences, Inc., priority 2009, published 2010).
“And” between values parts separate entries of the source, which are not always exact repeats. Identical values can stand only once. Like-named read-outs stand apart in the source and are kept apart here.

Columns and labels:
[1] = system: HCV genotype 1b replicon cells (Huh-luc); assay: EC50 determination in HCV genotype 1b Huh-luc replicon cells (luciferase); assay type: cell-based; conditions: Hepatitis C virus, 72 h, 3 days, average ± standard deviation
Description: (§1) HCV genotype 1b replicon cells (Huh-luc) were obtained from Reblikon (Mainz, Germany). The replicon in these cells is designated I389luc-ubi-neo/NS3-3′/ET and encodes a selectable resistance marker (neomycin phosphotransferase) as well as the firefly luciferase reporter gene. Huh-luc cells were maintained in Dulbecco's Modified Eagle's Medium (DMEM; GIBCO, Carlsbad, Calif.) supplemented with 10% fetal bovine serum (FBS; Hyclone, Logan, Utah) and 0.5 mg/mL of G-418 (GIBCO). Cells were passaged twice a week and maintained at subconfluent levels.
Replicon cells were seeded in 96-well plates at a density of 5×10^3 cells per well in 100 μL of DMEM culture medium, excluding G-418. Compounds 1 and 2 were serially diluted 1:3 in 100% DMSO (Sigma). These serial dilutions were added to the cells at a 1:200 dilution to achieve a final concentration of 0.5% DMSO in a total volume of 200 μL. […] HCV replication levels in drug-treated samples were expressed as a percentage of those in untreated controls (defined as 100%), and data were fit to the logistic dose response equation y=a/(1+(x/b)c) using XLFit4 software (IDBS, Emeryville, Calif.). EC50 values were calculated from the resulting equations as described previously (Delaney, W. E., et al., Antimicrobial Agents Chemotherapy, 45(6):1705-1713 (2001)).

[2] = system: HCV genotype 1b replicon cells (Huh-luc); assay: Combination study in Huh-luc replicon cells analysed with MacSynergy II; assay type: cell-based; conditions: Compound 1 in combination with Compound 2, MacSynergy II
Description: as §1
For each individual drug, the EC50 value was selected as the midpoint for the concentration range tested. Cells were incubated for three days and analyzed for luciferase expression as indicated above. For the combination study, two independent experiments were performed in triplicate.
The calculated volumes of surface deviations are expressed in nM2%. Per Prichard and Shipman, combination effects are defined as:
Highly synergistic if volumes >100 nM^2.
Slightly synergistic if volumes are >50 and ≦100 nM^2.
Additive if volumes are >−50 nM^2 and ≦50 nM^2.
Slightly antagonistic if volumes are >−100 nM^2 and ≦−50 nM^2.
Antagonistic if volumes are ≦−100 nM^2.

[3] = system: wild-type 1b Con-1 PI-Luc replicon; assay: Transient transfection replicon assay, wild type; assay type: cell-based, HCV genotype 1b; conditions: Hepatitis C virus
[4] = system: 1b Con-1 PI-Luc replicon with NS5B polymerase mutation M423T; assay type: cell-based, HCV genotype 1b; conditions: ratio of mutant EC50 to wild type EC50, NS5B M423T
[5] = system: 1b Con-1 PI-Luc replicon with NS5B polymerase mutation M414T; assay type: cell-based, HCV genotype 1b; conditions: ratio of mutant EC50 to wild type EC50, NS5B M414T
[6] = system: 1b Con-1 PI-Luc replicon with NS5B polymerase mutation Y448H; assay type: cell-based, HCV genotype 1b; conditions: ratio of mutant EC50 to wild type EC50, NS5B Y448H
[7] = system: 1b Con-1 PI-Luc replicon with NS5B polymerase mutations C316Y/C445F/Y452H; assay type: cell-based, HCV genotype 1b; conditions: ratio of mutant EC50 to wild type EC50, NS5B C316Y/C445F/Y452H
[8] = system: 1b PI-luc replicon with NS3 protease mutation V36M; assay type: cell-based, HCV genotype 1b; conditions: ratio of mutant EC50 to wild type EC50, NS3 V36M
[9] = system: 1b PI-luc replicon with NS3 protease mutation T54A; assay type: cell-based, HCV genotype 1b; conditions: ratio of mutant EC50 to wild type EC50, NS3 T54A
[10] = system: 1b PI-luc replicon with NS3 protease mutation R155K; assay type: cell-based, HCV genotype 1b; conditions: ratio of mutant EC50 to wild type EC50, NS3 R155K
[11] = system: 1b PI-luc replicon with NS3 protease mutation A156T; assay type: cell-based, HCV genotype 1b; conditions: ratio of mutant EC50 to wild type EC50, NS3 A156T
[12] = system: 1b PI-luc replicon with NS3 protease mutation D168E; assay type: cell-based, HCV genotype 1b; conditions: ratio of mutant EC50 to wild type EC50, NS3 D168E
[13] = system: 1b PI-luc replicon with NS3 protease mutation D168V; assay type: cell-based, HCV genotype 1b; conditions: ratio of mutant EC50 to wild type EC50, NS3 D168V
[14] = system: HCV 1b-con replicon cells; assay: Long-term (20 days, 6 passages) treatment of HCV replicon cells, HCV RNA by Real-Time RT PCR; assay type: cell-based, HCV genotype 1b; conditions: from baseline, compounds at 10 times their EC50, mean ± SD
Description: as §1
Both compounds were used at concentrations 10 times over their respective EC50 values. In brief, replicon cells (10^6 cells) were plated in a T75 flask in 15 mL of supplemented DMEM without G418. […] At each passage, cells were trypsinized, 10^6 cells were frozen in […] of RLT RNA lysis buffer (QIAGEN), and an additional 10^6 cells were seeded into another T75 flask with fresh medium and inhibitors. At the end of the assay, RNA was extracted from frozen replicon cells saved at the time of passage using QIAGEN RNeasy spin kit and was analyzed in a Real-Time RT PCR assay (Applied Biosystems).

[15] = Multiple-dose pharmacokinetic interaction study in healthy subjects (Example 5); assay type: in vivo, human
[16] = Table 4 (NS3 protease mutation study)
[17] = Compound 1 (40 mg BID) + Compound 2 (75 mg BID) / Compound 1 alone
[18] = coadministration of Compound 2 (75 mg BID) with Compound 1 (40 mg BID) vs Compound 1 alone

Structure (SMILES) | EC50 [1] | Interaction [2] | EC50 ([3]; Table 3 (NS5B mutation study)) | EC50 [3, 16] | Fold Resistance M423T [4] | Fold Resistance M414T [5] | Fold Resistance Y448H [6] | Fold Resistance C316Y/C445F/Y452H [7] | Fold Resistance V36M [8] | Fold Resistance T54A [9] | Fold Resistance R155K [10] | Fold Resistance A156T [11] | Fold Resistance D168E [12] | Fold Resistance D168V [13] | HCV RNA Change in Log10, Passage 5 [14] | HCV RNA Change in Log10, Passage 6 [14] | also measured
Fc1ccccc1-c1nc2ccn(Cc3ccc(-c4ccc(C(F)(F)F)cc4C(F)(F)F)nn3)cc-2n1 [Compound 1, 5-({6-[2,4-bis(trifluoromethyl)phenyl]pyridazin-3-yl}methyl)-2-(2-fluorophenyl)-5H-imidazo[4,5-c]pyridine] | 3 ± 2 nM | Additive (Additive if volumes are >−50 nM^2 and ≦50 nM^2.) | 1.5 nM | 0.79 nM | 0.8 fold | 0.7 fold | 38.0 fold | >343 fold | 1.1 fold | 1.0 fold | 0.9 fold | 0.6 fold | 1.0 fold | 1.2 fold | −2.1 ± 0.5 Log10 | −2.3 Log10 and −2.4 ± 0.2 Log10 | Antagonism Volume ([2]; mean ± SD): 0.07 ± 0.07 nM^2; Synergy Volume ([2]; mean ± SD): 13.5 ± 10.5 nM^2; Compound 1 AUCtau, % Geometric Least Square Mean Ratio (90% CI) [15, 17]: 206.4 (185.1, 230.0) %; Compound 1 Cmax, % Geometric Least Square Mean Ratio (90% CI) [15, 17]: 185.2 (167.3, 205.0) %; Compound 1 Ctau, % Geometric Least Square Mean Ratio (90% CI) [15, 17]: 251.2 (219.5, 287.5) %; increase in AUCtau of Compound 1 [15, 18]: 106%; increase in Cmax of Compound 1 [15, 18]: 85%; increase in Ctau of Compound 1 [15, 18]: 151%; AUC ([15]; human, plasma, po, 40 mg): 43400 ng·h/mL; Cmax ([15]; human, plasma, po, 40 mg): 5040 ng/mL; concentration at 12 h ([15]; human, plasma, po, 40 mg): 2570 ng/mL
COc1ccc2c(O[C@@H]3C[C@H]4C(=O)N[C@]5(P(=O)(O)Cc6c(F)cccc6F)C[C@H]5CCCCCCC[C@H](NC(=O)OC5CCCC5)C(=O)N4C3)cc(-c3csc(NC(C)C)n3)nc2c1Cl [Compound 2] | 11 ± 3 nM | additive | 50.7 nM | 21.4 nM | 1.1 fold | 2.0 fold | 1.0 fold | 2.1 fold | 3.0 fold | 0.6 fold | 566.3 fold | 1882.4 fold | 120.0 fold | 1832.3 fold | −2.9 ± 0.2 Log10 | −3.1 Log10 and −3.1 ± 0.4 Log10 | Cmax ([15]; plasma, human, oral, Compound 2 (75 mg BID) alone, Day 7, read-out: Compound 2 Cmax, Mean (% CV)): 4500 ng/mL; concentration at 12 h ([15]; plasma, human, oral, Compound 2 (75 mg BID) alone, Day 7, read-out: Compound 2 Ctau, Mean (% CV)): 1550 ng/mL
